# Experimental data as given in US8372840B2, “Potassium channel blockers” (Xention Limited, priority 2008, dated 2013).
# Key:
# hKv1.5 = hKv1.5 (Homo sapiens, UniProt P22460); assay: Kv1.5 Autopatch Electrophysiology (whole cell patch-clamp); format: cell-based; conditions: compound 1 μM, step to 0 mV for 1000 ms, total charge, room temperature (22-24° C.); for inhibition at 1 µM: read-out: hKv1.5 % inh.
# Procedure: The external bathing solution contained (in mM): 150 NaCl, 10 KCl, […], 3 MgCl2, 1 CaCl2, 10 HEPES, pH 7.4. Patch pipettes were filled with an electrode solution of composition (in mM): 160 KCl, 0.5 MgCl2, 10 HEPES, 1 EGTA, pH 7.4 with KOH.
# Compounds were dissolved in DMSO (100%) and made up in the external bather at a concentration of 1 μM. All experiments were conducted at room temperature (22-24° C.).
# A cell suspension (10 ml), with a density of 100,000 cells/ml, was aliquoted into a 15 ml centrifuge tube and transferred to an incubator (37° C., 5% CO2) for approximately one hour before use. Following 60 min incubation, a tube was taken and centrifuged at 1000 rpm for 4 mins at room temperature. 9.5 ml supernatant was thence discarded, leaving a cell pellet at the bottom of the tube. The pellet was then resuspended using 100 μl of cold (4° C.), filtered (0.22 μm), 0.2% BSA/bather solution (0.02 g BSA/10 ml bather). The bottom of the tube was manually agitated gently until the solution became cloudy with cells. The 100 μl cell resuspension solution was then stored on the bench at 4° C. (using a Peltier-based temperature control device) until used.
# A length of capillary glass (1B150E-4, WPI) was dipped into the cell suspension solution, such that ˜3 cm column of fluid was taken up by capillary action. A Ag/AgCl wire was dropped into the non-dipped end of the capillary also. The outside of the solution-filled end of the capillary was then dried and the capillary was loaded into the AutoPatch™
# (§1) Borosilicate glass patch pipettes (from 1.5 mm OD, thin-walled filamented, GC150-TF capillary glass, Harvard) were pulled using a DMZ pipette puller (Zeitz Instruments), and were back-filled using the internal pipette solution, being careful that no bubbles remain at the tip or in the body of the pipette. Patch pipettes typically had resistances of 2.3-3.5 MΩ. Once filled, the pipette tip and a proportion of the shaft (˜15 mm) were dipped into Sigmacote (Sigma). The recording pipette was then loaded into the AutoPatch™. Automated patch-clamping was initiated by the operator, but thereafter AutoPatch.exe continued the experiment providing that pre-set conditions and criteria were satisfied.
# Whole cell patch-clamp recordings were made using the AutoPatch™ rig, which incorporated an EPC9 amplifier (HEKA, Germany) under control of Pulse software (v8.54, HEKA, Germany), a motion controller with 2 translators (Newport, UK), valve controller (VF1) and a c-level suction device all at room temperature (22-24° C.). This equipment was completely under the control of AutoPatch.exe and operator intervention was only made when there was a requirement to refill the drug reservoirs or to prevent the loss of a cell due to a technical error. Cells with an Rseries greater than 18 MΩ were discounted from the experiment.
# Qualification stages prior to perfusion and drug application ensured that the observed current met the criteria for the experiment. Only those cells with an IK>500 pA were used for experiments. Cells were continuously perfused with external solution at a flow rate of 1.8-2 ml/minute. […] Online analysis of the hKv1.5 current during the application of compounds was performed by the AutoPatch™ software. Voltage-step protocols and analysis of data was performed as described for conventional electrophysiology.
# Electrophysiology voltage-step protocols and analysis of data was performed as follows. Data was sampled at 5 kHz, and filtered with a −3 dB bandwidth of 2.5 kHz. Cells were held at a voltage of −80 mV. Currents were evoked to a voltage step for 1000 ms in duration at 0 mV every 5 s. Currents were analysed using Pulsefit software (v8.54, HEKA, Germany), with the total charge measured during the whole of the voltage step. All other plots were produced using Igor Pro (WaveMetrics).
# human Kv1.3 = target: T1, human Kv1.3 (Homo sapiens, UniProt P22001); assay: Kv1.3 Autopatch Electrophysiology (whole cell patch-clamp, stably transfected CHO cells); format: cell-based; conditions: compound 1 μM, step to +30 mV for 500 ms, inhibition of total charge relative to control, room temperature; for inhibition at 1 µM: CHO, read-out: hKv1.3 % inh.
# T1 construct: expressed in transfected cells; host or cells: stably transfected cells grown in medium for CHO cells
# T1 sequence (P22001 whole entry): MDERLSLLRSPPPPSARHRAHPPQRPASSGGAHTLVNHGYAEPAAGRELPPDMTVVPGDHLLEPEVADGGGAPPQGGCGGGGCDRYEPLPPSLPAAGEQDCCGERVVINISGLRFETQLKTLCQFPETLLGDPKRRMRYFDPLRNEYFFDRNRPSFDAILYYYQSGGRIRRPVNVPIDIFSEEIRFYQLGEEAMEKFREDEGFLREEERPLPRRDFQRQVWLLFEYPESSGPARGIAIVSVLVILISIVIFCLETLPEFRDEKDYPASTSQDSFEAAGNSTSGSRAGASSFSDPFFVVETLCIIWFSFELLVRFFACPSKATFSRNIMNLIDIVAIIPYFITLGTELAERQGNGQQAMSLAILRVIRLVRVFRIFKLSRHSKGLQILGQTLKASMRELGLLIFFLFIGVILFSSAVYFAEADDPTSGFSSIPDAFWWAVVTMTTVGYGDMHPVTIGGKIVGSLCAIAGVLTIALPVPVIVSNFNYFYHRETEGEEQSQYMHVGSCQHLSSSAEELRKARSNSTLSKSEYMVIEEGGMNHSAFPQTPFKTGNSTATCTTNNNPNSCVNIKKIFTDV
# Procedure: Cells stably transfected with cDNA for human Kv1.3 (in pcDNA3.1) were grown in Ex-cell 302 serum-free medium for CHO cells, supplemented with 10 μl/ml [100×] glutamine, 500 μg/ml G418 ([…]), and 1% HT supplement (50×, hypoxanthine and thymidine). Compounds were tested on these cells using the AutoPatch technology in whole cell mode.
# The external bathing solution contained (in mM): 150 NaCl, 10 KCl, 1 MgCl2, 3 CaCl2, 10 HEPES, pH 7.4 with NaOH. Patch pipettes were filled with an electrode solution of composition (in mM): 100 K-Gluconate, 20 KCl, 1 MgCl2, 1 CaCl2, 10 HEPES, 11 EGTA, 5 ATP-Na2, 2 Glutathione pH 7.2 with KOH.
# Compounds were dissolved in DMSO (100%) and made up in the external bather at a concentration of 1 μM immediately prior to use. All experiments were conducted at room temperature.
# A cell suspension (10 ml), with a density of 6×10^6 cells, was aliquoted into a 15 ml centrifuge tube and stored at 4° C. before use. Prior to use a tube was taken and centrifuged at 1000 rpm for 4 mins at room temperature. The supernatant was then discarded, leaving a cell pellet at the bottom of the tube. The pellet was then resuspended using 1 ml of cold (4° C.), filtered (0.22 μm), 0.05% BSA/bather solution (0.05 g BSA/100 ml bather). The bottom of the tube was manually agitated followed by gentle tituration. The cell suspension was then placed in the AutoPatch™ temperature controlled cell-hotel at 14° C. and regularly titurated.
# as §1, with “A length of Teflon capillary tubing was dipped into the cell suspension solution, and a column of fluid was taken up by negative pressure. The column of fluid was in electrically connectivity with a Ag/AgCl reference electrode. Borosilicate” for “Borosilicate”, “remained” for “remain”, “2.5-3.5” for “2.3-3.5”, “pipettes were placed in a multiwell array and mounted on” for “pipette was then loaded into”, “AutoPatch™ machine.” for “AutoPatch™.”, “patch-clamping and drug-application” for “patch-clamping”
# Whole cell patch-clamp recordings were made using the AutoPatch™ rig, which incorporated an EPC9 or EPC10 amplifier (HEKA, Germany) under control of Pulse software (v8.54 or v8.76, HEKA, Germany), a cell applicator, automated drug application system (DAS), valve controller (VF1) and a suction device all at room temperature. This equipment was completely under the control of AutoPatch.exe and operator intervention was only made when there was a requirement to refill the bather reservoirs or to prevent the loss of a cell due to a technical error.
# Qualification stages prior to perfusion and drug application ensured that the observed current met the criteria for the experiment. Cells were continuously perfused with external solution at a flow rate of ˜2 ml/minute.
# Electrophysiology voltage-step protocols and analysis of data was performed as follows. Data were sampled at 5 kHz, and filtered with a −3 dB bandwidth of 2.5 kHz. Cells were held at a voltage of −80 mV. Currents were evoked by a voltage step to +30 mV for 500 ms in duration applied every 15 s. Online analysis of the hKv1.3 current during the application of compounds was performed by the Pulse (v8.54 or v8.76, HEKA, Germany), Excel (Microsoft, USA) and AutoPatch™ software, with the total charge measured during the whole of voltage step Inhibition of charge movement in the presence of drug was calculated relative to control.
# Sequence of hKv1.5 (P22460 whole entry): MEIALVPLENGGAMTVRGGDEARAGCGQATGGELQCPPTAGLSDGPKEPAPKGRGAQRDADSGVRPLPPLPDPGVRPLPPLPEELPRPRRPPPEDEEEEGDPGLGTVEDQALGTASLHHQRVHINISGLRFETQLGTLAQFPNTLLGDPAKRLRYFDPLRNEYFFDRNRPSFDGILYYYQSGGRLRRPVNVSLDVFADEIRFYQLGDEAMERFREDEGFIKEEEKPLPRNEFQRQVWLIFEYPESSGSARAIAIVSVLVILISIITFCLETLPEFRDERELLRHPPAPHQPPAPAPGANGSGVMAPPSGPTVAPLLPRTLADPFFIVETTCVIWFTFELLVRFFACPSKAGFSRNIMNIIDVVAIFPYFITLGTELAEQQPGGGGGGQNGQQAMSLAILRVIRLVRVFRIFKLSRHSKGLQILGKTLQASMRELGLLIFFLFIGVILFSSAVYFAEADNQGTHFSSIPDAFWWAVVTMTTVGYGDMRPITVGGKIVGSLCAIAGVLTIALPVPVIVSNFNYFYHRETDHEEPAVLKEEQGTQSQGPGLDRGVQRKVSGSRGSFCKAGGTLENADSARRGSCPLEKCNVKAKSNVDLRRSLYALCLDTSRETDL
hKv1.5 % inh. (hKv1.5) [%],hKv1.3 % inh. (human Kv1.3) [%],inhibition at 1 µM (hKv1.5) [%],inhibition at 1 µM (human Kv1.3) [%],Molecule
95,99,,,1-Methyl-1H-pyrazole-3-sulfonic acid (4-chloro-benzyl)-(3-morpholin-4-yl-phenyl)-amide [Example 40]
77,99,,,1-Methyl-1H-pyrazole-3-sulfonic acid (4-chloro-benzyl)-[3-(2-oxo-imidazolidin-1-yl)-phenyl]-amide [Example 42]
71,96,,,1-Methyl-1H-pyrazole-3-sulfonic acid (4-chloro-benzyl)-[3-(2-oxo-pyrrolidin-1-yl)-phenyl]-amide [Example 38]
33,92,,,1-Methyl-1H-pyrazole-3-sulfonic acid benzyl-(3-morpholin-4-yl-phenyl)-amide [Example 41]
56,65,,,"4-Methyl-3,4-dihydro-2H-benzo[1,4]oxazine-7-sulfonic acid benzyl-[3-(2-oxo-pyrrolidin-1-yl)-phenyl]-amide [Example 18]"
,,66,86,"O=C1NCCN1c1cccc(N(Cc2ccccc2)S(=O)(=O)c2ccccc2)c1 [Example 1, N-Benzyl-N-[3-(2-oxo-imidazolidin-1-yl)-phenyl]-benzenesulfonamide]"
,,62,76,"O=S(=O)(c1ccccc1)N(Cc1ccccc1)c1cccc(N2CCOCC2)c1 [Example 2, N-Benzyl-N-(3-morpholin-4-yl-phenyl)-benzenesulfonamide]"
,,73,90,"Cn1cncc1C(=O)Nc1cccc(N(Cc2ccccc2)S(=O)(=O)c2ccccc2)c1 [Example 3, 3-Methyl-3H-imidazole-4-carboxylic acid [3-(benzenesulfonyl-benzyl-amino)-phenyl]-amide]"
,,91,88,"O=S(=O)(c1ccccc1)N(Cc1ccccc1)c1cccc(N2CCN(c3ccccc3)CC2)c1 [Example 5, N-Benzyl-N-[3-(4-phenyl-piperazin-1-yl)-phenyl]-benzenesulfonamide]"
,,72,91,"Cn1ccc(S(=O)(=O)N(Cc2ccc(Cl)cc2)c2cccc(OCc3ccccn3)c2)n1 [Example 6, 1-Methyl-1H-pyrazole-3-sulfonic acid (4-chloro-benzyl)-[3-(pyridin-2-ylmethoxy)-phenyl]-amide]"
,,93,99,"CNC(=O)COc1cccc(N(Cc2ccc(Cl)cc2)S(=O)(=O)c2ccn(C)n2)c1 [Example 7, 2-{3-[(4-Chloro-benzyl)-(1-methyl-1H-pyrazole-3-sulfonyl)-amino]-phenoxy}-N-methyl-acetamide]"
,,77,86,"O=C(Cc1ccccc1)Nc1cccc(N(Cc2ccccc2)S(=O)(=O)c2ccccc2)c1 [Example 11, N-[3-(Benzenesulfonyl-benzyl-amino)-phenyl]-2-phenyl-acetamide]"
,,58,85,"COCC(=O)Nc1cccc(N(Cc2ccccc2)S(=O)(=O)c2ccccc2)c1 [Example 12, N-[3-(Benzenesulfonyl-benzyl-amino)-phenyl]-2-methoxy-acetamide]"
,,77,94,"O=S(=O)(c1ccccc1)N(Cc1ccccc1)c1cccc(N2CCNC(c3ccccc3)C2)c1 (stereo not shown) [Example 14, N-Benzyl-N-[3-(3-phenyl-piperazin-1-yl)-phenyl]-benzenesulfonamide]"
,,42,75,"Cc1nc(S(=O)(=O)N(Cc2ccccc2)c2cccc(N3CCOCC3)c2)cn1C [Example 19, 1,2-Dimethyl-1H-imidazole-4-sulfonic acid benzyl-(3-morpholin-4-yl-phenyl)-amide]"
,,,72,"Cn1ccc(S(=O)(=O)N(Cc2ccccc2)c2cccc(N3CCNC3=O)c2)n1 [Example 43, 1-Methyl-1H-pyrazole-3-sulfonic acid benzyl-[3-(2-oxo-imidazolidin-1-yl)-phenyl]-amide]"
,,91,100,"O=C1NCCN1c1cccc(N(Cc2ccc(Cl)cc2)S(=O)(=O)c2ccccc2)c1 [Example 46, N-(4-Chloro-benzyl)-N-[3-(2-oxo-imidazolidin-1-yl)-phenyl]-benzenesulfonamide]"
,,99,95,"Cn1ccc(S(=O)(=O)N(Cc2ccc(Cl)cc2)c2cccc(OCC(=O)Nc3ccccn3)c2)n1 [Example 49, 2-{3-[(4-Chloro-benzyl)-(1-methyl-1H-pyrazole-3-sulfonyl)-amino]-phenoxy}-N-pyridin-2-yl-acetamide]"

Molecule,hKv1.5 % inh. (hKv1.5) [%],hKv1.3 % inh. (human Kv1.3) [%],inhibition at 1 µM (hKv1.5) [%],inhibition at 1 µM (human Kv1.3) [%]
1-Methyl-1H-imidazole-4-sulfonic acid (4-chloro-benzyl)-(3-morpholin-4-yl-phenyl)-amide [Example 36],44,83,,
